Values of other authors in patent US10940187B2, “Method of treatment of schizophreniform disorder” (Curemark, LLC, priority 2011, dated 2021).
Like-named read-outs stand apart in the source and are kept apart here.

Tests used:
[1] = tested on: ckr mice; settings: for spontaneous hyperactivity of ckr mice: dose dependent effects
[2] = tested on: control mice; settings: monitored during the dark cycle

## O=C1CCc2ccc(OCCCCN3CCN(c4cccc(Cl)c4Cl)CC3)cc2N1 [aripiprazole]
[1]; 15 mg/kg
  locomotor activity, post-hoc Dunnett's test vs vehicle control: did not significantly suppress
  motor activity: increase in motor activity
[1]; 30 mg/kg
  locomotor activity, post-hoc Dunnett's test vs vehicle control: significantly suppressed
  motor activity: suppression of motor activity
  overall suppression of motor function (observational): severe sedation
[1]; across doses, F6,54_4.626, P_0.001
  locomotor activity of ckr mice: dose-dependently reduced
[1]; curve fitted to subset of data, doses 1.67 to 10 mg/kg, fit failed to correlate with observed values
  ED50 for initial suppression of locomotor activity: 2.695 mg/kg
[1]
  spontaneous hyperactivity of ckr mice: dose-dependently suppressed
[1]; doses of 3-10 mg/kg
  locomotor activity, post-hoc Dunnett's test vs vehicle control: significantly reduced
[1]; lower doses 1.67-10 mg/kg
  motor activity: dose-dependent reduction
[1]; suppression at low doses, little effect at intermediate doses, suppression at high doses
  shape of dose-response on hyperactivity: tri-phasic dose-response

## O=C(CCCN1CCC(O)(c2ccc(Cl)cc2)CC1)c1ccc(F)cc1 [haloperidol]
[1]
  spontaneous hyperactivity of ckr mice: dose-dependently suppressed
[2]
  locomotor activity of control mice: did not produce a significant suppression

## OCCOCCN1CCN(C2=Nc3ccccc3Sc3ccccc32)CC1 [quetiapine]
[1]
  spontaneous hyperactivity of ckr mice: dose-dependently suppressed

## Cc1nc2n(c(=O)c1CCN1CCC(c3noc4cc(F)ccc34)CC1)CCCC2 [risperidone]
[1]
  spontaneous hyperactivity of ckr mice: dose-dependently suppressed

## O=C1Cc2cc(CCN3CCN(c4nsc5ccccc45)CC3)c(Cl)cc2N1 [ziprasidone]
[1]
  spontaneous hyperactivity of ckr mice: dose-dependently suppressed
